Test results taken from PMC10054477, “Design, Synthesis, and Biological Evaluation of Sulfonamide Methoxypyridine Derivatives as Novel PI3K/mTOR Dual Inhibitors” (Pharmaceuticals, 2023).

Experiments:
MCF-7 cells = test: CCK-8 cell viability assay, MCF-7; type: cell-based; details: Homo sapiens, MCF7, 72 h, mean (n = 3)
Experimental: (§1) MCF-7 and HCT-116 cells were purchased from the Meilunbio Biotechnology Co., Ltd. (Dalian, China). Cells were cultured at 37 °C with 5% CO2, using DMEM or RPMI 1640 medium (Meilunbio, Dalian, China) with 10% (v/v) fetal bovine serum (Gibco, San Diego, CA, USA) and 1% (v/v) penicillin and streptomycin (Meilunbio, Dalian, China). CCK-8 assay was used to determine the inhibitory effect in vitro. In short, cells were incubated into 96-well plates at the rate of 5000 cells per well. After 24 h of incubation, 100 μL medium was added, which contained a specific concentration of the test compound. After 72 h, 10 μL CCK-8 regent was added and the plate was incubated at 37 °C, 5% CO2 for 1 h. The optical density of each hole at 450 nm was read by a BioTek TS-800 microplate reader. GraphPad Prism 9.3.1 software was used to calculate the IC50 value.

HCT-116 cells = test: CCK-8 cell viability assay, HCT-116; type: cell-based; details: Homo sapiens, mean (n = 3)
Experimental: as §1

PI3Kα = target: T1, PI3Kα (Homo sapiens, UniProt P42336); test: ADP-Glo kinase assay, PI3Kα enzyme inhibition; type: biochemical; details: for inhibition at 0.001 µM: at 1 nM; for IC50: mean (n = 2)
T1 construct: purchased SignalChem P27-122DH
T1 sequence (P42336 whole entry): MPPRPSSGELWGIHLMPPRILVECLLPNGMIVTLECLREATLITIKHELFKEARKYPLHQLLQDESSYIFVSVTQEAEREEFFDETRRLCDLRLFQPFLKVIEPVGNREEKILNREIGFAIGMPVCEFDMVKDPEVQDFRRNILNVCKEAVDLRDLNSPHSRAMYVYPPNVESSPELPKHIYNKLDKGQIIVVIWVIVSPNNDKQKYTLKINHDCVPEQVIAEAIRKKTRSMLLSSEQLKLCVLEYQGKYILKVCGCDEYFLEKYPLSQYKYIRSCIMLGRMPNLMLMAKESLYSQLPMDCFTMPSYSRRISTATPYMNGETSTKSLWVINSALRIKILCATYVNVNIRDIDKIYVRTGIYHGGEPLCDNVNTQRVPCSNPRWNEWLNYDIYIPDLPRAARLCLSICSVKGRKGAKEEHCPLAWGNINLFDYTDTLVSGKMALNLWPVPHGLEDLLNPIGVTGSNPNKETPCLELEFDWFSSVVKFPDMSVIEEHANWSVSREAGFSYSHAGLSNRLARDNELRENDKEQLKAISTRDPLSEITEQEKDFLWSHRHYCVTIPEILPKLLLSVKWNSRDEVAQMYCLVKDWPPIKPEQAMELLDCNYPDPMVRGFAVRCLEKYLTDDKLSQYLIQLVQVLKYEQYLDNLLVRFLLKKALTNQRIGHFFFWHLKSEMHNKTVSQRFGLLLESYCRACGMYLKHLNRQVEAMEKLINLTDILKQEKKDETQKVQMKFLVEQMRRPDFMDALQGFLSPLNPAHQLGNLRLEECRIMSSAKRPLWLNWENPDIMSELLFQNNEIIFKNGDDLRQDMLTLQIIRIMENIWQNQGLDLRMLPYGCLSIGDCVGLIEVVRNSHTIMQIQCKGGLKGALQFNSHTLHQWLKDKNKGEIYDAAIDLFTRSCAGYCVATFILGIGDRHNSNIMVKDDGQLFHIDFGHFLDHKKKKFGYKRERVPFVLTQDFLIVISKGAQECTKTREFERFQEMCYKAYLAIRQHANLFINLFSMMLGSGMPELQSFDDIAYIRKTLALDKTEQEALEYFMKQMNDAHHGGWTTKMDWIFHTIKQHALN
T1 sequence (P27986 whole entry partner): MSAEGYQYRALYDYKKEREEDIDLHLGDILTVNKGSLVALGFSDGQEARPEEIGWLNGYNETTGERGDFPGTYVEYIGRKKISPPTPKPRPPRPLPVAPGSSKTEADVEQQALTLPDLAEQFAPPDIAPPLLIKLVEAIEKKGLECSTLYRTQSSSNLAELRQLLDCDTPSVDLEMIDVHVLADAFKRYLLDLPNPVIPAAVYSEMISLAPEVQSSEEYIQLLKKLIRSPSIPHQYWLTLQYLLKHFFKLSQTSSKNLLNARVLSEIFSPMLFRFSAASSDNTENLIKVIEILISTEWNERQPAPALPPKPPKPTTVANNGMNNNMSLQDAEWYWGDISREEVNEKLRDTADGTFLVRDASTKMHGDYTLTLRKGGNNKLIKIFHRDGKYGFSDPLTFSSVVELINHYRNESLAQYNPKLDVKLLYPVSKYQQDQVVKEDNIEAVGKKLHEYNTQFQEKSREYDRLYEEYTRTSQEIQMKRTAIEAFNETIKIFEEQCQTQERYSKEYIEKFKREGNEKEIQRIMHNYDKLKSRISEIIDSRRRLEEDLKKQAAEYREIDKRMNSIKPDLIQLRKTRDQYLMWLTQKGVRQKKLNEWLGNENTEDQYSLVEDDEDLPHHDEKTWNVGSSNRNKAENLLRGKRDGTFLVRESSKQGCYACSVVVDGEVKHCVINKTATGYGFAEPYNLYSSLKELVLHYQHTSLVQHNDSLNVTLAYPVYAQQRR
Experimental: The enzymatic inhibitory assays of all target compounds against PI3Kα were performed with the ADP-Glo assay (Promega, Madison, WI, USA, catalog No. V9102/3). Briefly, compounds were continuously diluted to a certain concentration. […] The mixture was added to a 96-well plate and incubated in a dark place at ambient temperature for 40 min. Then, the kinase reaction was stopped by adding of ADP-Glo reagent and the plate was incubated again at ambient temperature for another 40 min. The kinase detection reagent was added and the signal was collected via PerkinElmer Envision plate reader (PE, Boston, MA, USA).

| SMILES | IC50 (MCF-7 cells; Table 1) [µM] | IC50 (HCT-116 cells; Table 1, 72 h) [µM] | inhibition at 0.001 µM (PI3Kα; Table 1) [%] | IC50 (MCF-7 cells; Table 2) [µM] | IC50 (HCT-116 cells; Table 2, 72 h) [µM] | also measured |
| --- | --- | --- | --- | --- | --- | --- |
| COCCCNC(=O)c1cnc(-c2ccnc3ccc(-c4cnc(OC)c(NS(=O)(=O)c5ccc(F)cc5F)c4)cc23)o1 [22f, 2-(6-(5-((2,4-difluorophenyl)sulfonamido)-6-methoxypyridin-3-yl)quinolin-4-yl)-N-(3-methoxypropyl)oxazole-5-carboxamide] | – | – | – | – | – | IC50 (MCF-7 cells; Table 3): 0.29 ± 0.1 µM; IC50 (HCT-116 cells; Table 3, 72 h): 0.06 ± 0.02 µM; inhibition at 0.001 µM (PI3Kα; Table 3): 78%; IC50 (PI3Kα): 0.38 nM |
| COc1ncc(-c2ccc3nccc(-c4ncc(C(=O)NCC5CC5)o4)c3c2)cc1NS(=O)(=O)c1ccc(F)cc1F [22h, N-(cyclopropylmethyl)-2-(6-(5-((2,4-difluorophenyl)sulfonamido)-6-methoxypyridin-3-yl)quinolin-4-yl)oxazole-5-carboxamide] | – | – | – | – | – | IC50 (MCF-7 cells; Table 3): 0.35 ± 0.11 µM; IC50 (HCT-116 cells; Table 3, 72 h): 0.06 ± 0.01 µM; inhibition at 0.001 µM (PI3Kα; Table 3): 78%; IC50 (PI3Kα): 0.37 nM |
| COCCCNc1ncnc2c1sc1cc(-c3cnc(OC)c(NS(=O)(=O)c4ccc(F)cc4F)c3)ccc12 [11e, N-(2-methoxy-5-(4-((3-methoxypropyl)amino)benzo[4,5]thieno[3,2-d]pyrimidin-7-yl)pyridin-3-yl)-2,4-difluorobenzenesulfonamide] | > 1 | > 1 | 35 | – | – | – |
| COc1ncc(-c2ccc3c(c2)sc2c(N4CCC(C)CC4)ncnc23)cc1NS(=O)(=O)c1ccc(F)cc1F [11b, N-(2-methoxy-5-(4-(4-methylpiperidin-1-yl)benzo[4,5]thieno[3,2-d]pyrimidin-7-yl)pyridin-3-yl) 2,4-difluorobenzenesulfonamide] | > 1 | > 1 | 10 | – | – | – |
| COc1ccc(CCNC(=O)c2cnc(-c3ccnc4ccc(-c5cnc(OC)c(NS(=O)(=O)c6ccc(F)cc6F)c5)cc34)o2)cc1 [22k, 2-(6-(5-((2,4-difluorophenyl)sulfonamido)-6-methoxypyridin-3-yl)quinolin-4-yl)-N-(4-methoxyphenethyl)oxazole-5-carboxamide] | – | – | – | – | – | IC50 (MCF-7 cells; Table 3): > 1 µM; IC50 (HCT-116 cells; Table 3, 72 h): > 1 µM; inhibition at 0.001 µM (PI3Kα; Table 3): 22% |
| CCCCNc1ncnc2c1sc1cc(-c3cnc(OC)c(NS(=O)(=O)c4ccc(F)cc4F)c3)ccc12 [11i, N-(5-(4-(butylamino)benzo[4,5]thieno[3,2-d]pyrimidin-7-yl)-2-methoxypyridin-3-yl)-2,4-difluorobenzenesulfonamide] | > 1 | > 1 | 15 | – | – | – |
| COc1ncc(-c2ccc3nccc(-c4ncc(C(=O)NCC5CCCCC5)o4)c3c2)cc1NS(=O)(=O)c1ccc(F)cc1F [22i, N-(cyclohexylmethyl)-2-(6-(5-((2,4-difluorophenyl)sulfonamido)-6-methoxypyridin-3-yl)quinolin-4-yl)oxazole-5-carboxamide] | – | – | – | – | – | IC50 (MCF-7 cells; Table 3): 1 ± 0.3 µM; IC50 (HCT-116 cells; Table 3, 72 h): 0.77 ± 0.19 µM; inhibition at 0.001 µM (PI3Kα; Table 3): 33% |
| CNC(=O)c1cnc(-c2ccnc3ccc(-c4cnc(OC)c(NS(=O)(=O)c5ccc(F)cc5F)c4)cc23)o1 [22b, 2-(6-(5-((2,4-difluorophenyl)sulfonamido)-6-methoxypyridin-3-yl)quinolin-4-yl)-N-methyloxazole-5-carboxamide] | – | – | – | – | – | IC50 (MCF-7 cells; Table 3): 0.39 ± 0.08 µM; IC50 (HCT-116 cells; Table 3, 72 h): 0.15 ± 0.04 µM; inhibition at 0.001 µM (PI3Kα; Table 3): 74% |
| COc1ncc(-c2ccc3c(c2)sc2c(NCCO)ncnc23)cc1NS(=O)(=O)c1ccc(F)cc1F [11c, N-(5-(4-((2-hydroxyethyl)amino)benzo[4,5]thieno[3,2-d]pyrimidin-7-yl)-2-methoxypyridin-3-yl) -2,4-difluoro-benzenesulfonamide] | 0.85 ± 0.37 | 0.59 ± 0.18 | 29 | – | – | – |
| COCCOc1ncnc2c1sc1cc(-c3cnc(OC)c(NS(=O)(=O)c4ccc(F)cc4F)c3)ccc12 [11l, N-(2-methoxy-5-(4-(2-methoxyethoxy)benzo[4,5]thieno[3,2-d]pyrimidin-7-yl)pyridin-3-yl)-2,4-difluorobenzenesulfonamide] | 0.86 ± 0.12 | > 1 | 18 | – | – | – |
| CCCCNC(=O)c1cnc(-c2ccnc3ccc(-c4cnc(OC)c(NS(=O)(=O)c5ccc(F)cc5F)c4)cc23)o1 [22g, N-butyl-2-(6-(5-((2,4-difluorophenyl)sulfonamido)-6-methoxypyridin-3-yl)quinolin-4-yl)oxazole-5-carboxamide] | – | – | – | – | – | IC50 (MCF-7 cells; Table 3): 0.45 ± 0.09 µM; IC50 (HCT-116 cells; Table 3, 72 h): 0.32 ± 0.09 µM; inhibition at 0.001 µM (PI3Kα; Table 3): 55% |
| COc1ncc(-c2ccc3nccc(-c4ncc(C(=O)NCCc5ccc(Cl)cc5)o4)c3c2)cc1NS(=O)(=O)c1ccc(F)cc1F [22l, N-(4-chlorophenethyl)-2-(6-(5-((2,4-difluorophenyl)sulfonamido)-6-methoxypyridin-3-yl)quinolin-4-yl)oxazole-5-carboxamide] | – | – | – | – | – | IC50 (MCF-7 cells; Table 3): > 1 µM; IC50 (HCT-116 cells; Table 3, 72 h): > 1 µM; inhibition at 0.001 µM (PI3Kα; Table 3): 15% |
| COc1ncc(-c2ccc3c(c2)sc2c(NC(C)C)ncnc23)cc1NS(=O)(=O)c1ccc(F)cc1F [11g, N-(5-(4-(isopropylamino)benzo[4,5]thieno[3,2-d]pyrimidin-7-yl)-2-methoxypyridin-3-yl)-2,4-difluorobenzenesulfonamide] | 0.53 ± 0.16 | 0.22 ± 0.08 | 44 | – | – | – |
| COc1ncc(-c2ccc3c(c2)sc2c(N4CCOCC4)ncnc23)cc1NS(=O)(=O)c1ccc(F)cc1F [11a, 2,4-difluoro-N-(2-methoxy-5-(4-morpholinobenzo[4,5]thieno[3,2-d]pyrimidin-7-yl)pyridin-3-yl)benzenesulfonamide] | 0.96 ± 0.23 | > 1 | 10 | – | – | – |
| COc1ncc(-c2ccc3c(c2)sc2c(NCCN(C)C)ncnc23)cc1NS(=O)(=O)c1ccc(F)cc1F [11h, N-(5-(4-((2-(dimethylamino)ethyl)amino)benzo[4,5]thieno[3,2-d]pyrimidin-7-yl)-2-methoxypyridin-3-yl)-2,4-difluorobenzenesulfonamide] | 0.7 ± 0.21 | 0.56 ± 0.1 | 12 | – | – | – |
| COc1ncc(-c2ccc3c(c2)sc2c(OCCN(C)C)ncnc23)cc1NS(=O)(=O)c1ccc(F)cc1F [11k, N-(5-(4-(2-(dimethylamino)ethoxy)benzo[4,5]thieno[3,2-d]pyrimidin-7-yl)-2-methoxypyridin-3-yl)-2,4-difluorobenzenesulfonamide] | 0.69 ± 0.11 | 0.25 ± 0.08 | 13 | – | – | – |

Further lines, with some results ahead:

| IC50 (MCF-7 cells; Table 1) [µM] | IC50 (HCT-116 cells; Table 1, 72 h) [µM] | inhibition at 0.001 µM (PI3Kα; Table 1) [%] | IC50 (MCF-7 cells; Table 2) [µM] | IC50 (HCT-116 cells; Table 2, 72 h) [µM] | SMILES | also measured |
| --- | --- | --- | --- | --- | --- | --- |
| – | – | – | 0.75 ± 0.25 | 0.42 ± 0.12 | COCCNc1ncnc2ncc(-c3cnc(OC)c(NS(=O)(=O)c4ccc(F)cc4F)c3)cc12 [17j, N-(2-methoxy-5-(4-((2-methoxyethyl)amino)pyrido[2,3-d]pyrimidin-6-yl)pyridin-3-yl)-2,4-difluorobenzenesulfonamide] | inhibition at 0.001 µM (PI3Kα; Table 2): 24% |
| – | – | – | > 1 | > 1 | COc1ncc(-c2cnc3ncnc(NCCN4CCOCC4)c3c2)cc1NS(=O)(=O)c1ccc(F)cc1F [17g, N-(2-methoxy-5-(4-((2-morpholinoethyl)amino)pyrido[2,3-d]pyrimidin-6-yl)pyridin-3-yl) -2,4-difluorobenzenesulfonamide] | inhibition at 0.001 µM (PI3Kα; Table 2): 11% |
| – | – | – | > 1 | > 1 | COCCCNc1ncnc2ncc(-c3cnc(OC)c(NS(=O)(=O)c4ccc(F)cc4F)c3)cc12 [17i, N-(2-methoxy-5-(4-((3-methoxypropyl)amino)pyrido[2,3-d]pyrimidin-6-yl)pyridin-3-yl)-2,4-difluorobenzenesulfonamide] | – |
| – | – | – | > 1 | 0.83 ± 0.25 | CCCCNc1ncnc2ncc(-c3cnc(OC)c(NS(=O)(=O)c4ccc(F)cc4F)c3)cc12 [17c, N-(5-(4-(butylamino)pyrido[2,3-d]pyrimidin-6-yl)-2-methoxypyridin-3-yl)-2,4-difluorobenzenesulfonamide] | inhibition at 0.001 µM (PI3Kα; Table 2): 21% |
| – | – | – | 0.91 ± 0.39 | 0.35 ± 0.17 | COc1ncc(-c2cnc3ncnc(NC4CC4)c3c2)cc1NS(=O)(=O)c1ccc(F)cc1F [17b, N-(5-(4-(cyclopropylamino)pyrido[2,3-d]pyrimidin-6-yl)-2-methoxypyridin-3-yl)-2,4-difluorobenzenesulfonamide] | inhibition at 0.001 µM (PI3Kα; Table 2): 21% |
| – | – | – | > 1 | > 1 | COc1ncc(-c2cnc3ncnc(NCC4CCCCC4)c3c2)cc1NS(=O)(=O)c1ccc(F)cc1F [17k, N-(5-(4-((cyclohexylmethyl)amino)pyrido[2,3-d]pyrimidin-6-yl)-2-methoxypyridin-3-yl)-2,4-difluorobenzenesulfonamide] | inhibition at 0.001 µM (PI3Kα; Table 2): 22% |
| – | – | – | 0.92 ± 0.41 | 0.64 ± 0.2 | COc1ncc(-c2cnc3ncnc(N4CCOCC4)c3c2)cc1NS(=O)(=O)c1ccc(F)cc1F [17e, N-(2-methoxy-5-(4-morpholinopyrido[2,3-d]pyrimidin-6-yl)pyridin-3-yl)2,4-difluorobenzenesulfonamide] | inhibition at 0.001 µM (PI3Kα; Table 2): 36% |
| – | – | – | 0.93 ± 0.48 | 0.69 ± 0.12 | COc1ncc(-c2cnc3ncnc(NCCO)c3c2)cc1NS(=O)(=O)c1ccc(F)cc1F [17h, N-(5-(4-((2-hydroxyethyl)amino)pyrido[2,3-d]pyrimidin-6-yl)-2-methoxypyridin-3-yl)-2,4-difluorobenzenesulfonamide] | inhibition at 0.001 µM (PI3Kα; Table 2): 24% |
